ChEMBL document CHEMBL1671733, “Clinical evaluation of a dried blood spot assay for atazanavir” (Antimicrob Agents Chemother, 2010)

How the values were obtained:
Format in all cases: ADME, organism-based
[1] = Plasma concentration in HIV infected patient at 300 mg qd measured after 16.60 hrs by plasma based assay using HPLC; conditions: human
[2] = Plasma concentration in HIV infected patient at 400 mg qd measured after 13.06 hrs by plasma based assay using HPLC; conditions: human
[3] = Cmin in HIV infected patient at 400 mg qd measured after 13.06 hrs by plasma based assay using HPLC; conditions: human, read-out: Cmin
[4] = Cmin in HIV infected patient at 300 mg qd measured after 16.60 hrs by plasma based assay using HPLC; conditions: human, read-out: Cmin
[5] = Cmax in HIV infected patient at 400 mg qd measured after 13.06 hrs by plasma based assay using HPLC; parameters: dose 400 mg; conditions: human
[6] = Cmax in HIV infected patient at 300 mg qd measured after 16.60 hrs by plasma based assay using HPLC; parameters: dose 300 mg; conditions: human
Homo sapiens [7] = species: Homo sapiens; experiment: Plasma concentration in HIV infected patient with HIV RNA of <50 copies/ml by dried blood spot assay using reversed-phase ultrahigh-performance liquid chromatography; conditions: in vivo
Homo sapiens [8] = species: Homo sapiens; experiment: Plasma concentration in HIV infected patient with HIV RNA of >50 copies/ml by dried blood spot assay using reversed-phase ultrahigh-performance liquid chromatography; conditions: in vivo

concentration at 16.6 h [1]: 1630 ng/mL | concentration at 13.06 h [2]: 465 ng/mL | concentration at 13.06 h [3]: 342 ng/mL | concentration at 16.6 h [4]: 196 ng/mL | Cmax [5]: 787 ng/mL | Cmax [6]: 7220 ng/mL | Cp (Homo sapiens [7]): 1582 ng/mL | Cp (Homo sapiens [8]): 543 ng/mL
SMILES: COC(=O)N[C@H](C(=O)N[C@@H](Cc1ccccc1)[C@@H](O)CN(Cc1ccc(-c2ccccn2)cc1)NC(=O)[C@@H](NC(=O)OC)C(C)(C)C)C(C)(C)C [ATAZANAVIR]
